Literature values in patent publication US20260345480A1, “PHARMACEUTICAL DOSAGE FORMS FOR PULSATILE RELEASE” (CHIESI FARMACEUTICI S.P.A., priority 2023, published 2026).

Test system: animals
Conditions: continuous infusion for periods longer than 24 hours

Question: With `Cc1c(O)c(=O)ccn1C` [deferiprone] as the compound, how does the “toxicity on continuous infusion (in words)” value read?
Answer: potential toxicity of deferiprone observed in animals undergoing continuous infusion for periods longer than 24 hours
